{"source": "patent US12251400B2", "about": "“Liquid concentrates of calcium and magnesium” (BIOLINK LIFE SCIENCES, INC., priority 2019, dated 2025)", "experiment": "In vitro assessment of phosphate binding", "details": "24 hours post-mixing", "protocol": "Test Preparations: Solutions of the test article (calcium propionate and magnesium propionate) and control article (calcium acetate) are prepared in deionized, purified water having 18 MO or greater resistance. The pH of each solution is adjusted to the desired value by the addition of concentrated hydrochloric acid or sodium hydroxide, as appropriate.\nTests and Assays: An HPLC method with conductivity detection was developed and validated for use in the determination of propionate, acetate and phosphate. HPLC analysis is performed using a Dionex Aquion ion chromatography system Detection of the anionic species is enabled using a Dionex ED50 Electrochemical Detector, operating in Conductivity Mode. Limits of Detection and Quantitation are enhanced through the use of a Dionex Anion Self-Regenerating Suppressor. After assay-specific development and verification of assay performance is completed, the analysis of phosphate and propionate or acetate is performed by sampling the test solution and diluting it, if necessary, to a concentration within the linear range of the Assay. The sample is then injected onto the HPLC column and eluted with a sodium hydroxide gradient. Data is acquired using Dionex Chromeleon® software. […]"}
{"molecule": "CC(=O)[O-].CC(=O)[O-].[Ca+2]", "note": "[calcium acetate]", "values": [{"measurement": "Pi binding", "setting": "pH 4.5", "result": "about 60%"}, {"measurement": "Pi binding", "setting": "pH 6.8", "result": "over 90%"}]}
